# According to PMC5094908 (Journal of applied toxicology : JAT, 2016):
# “Also recorded” adds a separate entry of the source. Counter-ions that a name gives are not always drawn. Like-named read-outs stand apart in the source and are kept apart here.
# Tests used:
# LUHMES and dLUHMES cells [1] = test system: LUHMES and dLUHMES cells
# [2] = test system: Caspase 3/7 activity in LUHMES and dLUHMES cells; assay: Caspase-Glo 3/7 luminescence assay, 24 h; assay type: cell-based, human
# [3] = test system: Caspase 3/7 activity in SH-SY5Y and dSH-SY5Y cells; assay: Caspase-Glo 3/7 luminescence assay, 24 h; assay type: cell-based
# [4] = test system: HEK293, SH-SY5Y, SK-N-SH, or N2a; conditions: cited from earlier work
# [5] = test system: SH-SY5Y and dSH-SY5Y cells
# [6] = test system: SH-SY5Y and dSH-SY5Y cells; assay: qPCR of apoptosis-pathway genes after 6 h toxicant treatment; assay type: cell-based, human; conditions: for BAG3 expression: both SH-SY5Y and dSH-SY5Y
# [7] = test system: SH-SY5Y, LUHMES, NSC, dSH-SY5Y, dLUHMES, dNSC
# NSC and dNSC cells = conditions: 24 h exposure, [ATP], 0.78 to 100 µM
# LUHMES and dLUHMES cells [8] = conditions: LUHMES, 1.56 µM RSR, 6 h; samples lost
# [9] = 24 h exposure, 0.78 to 100 µM, vs SH-SY5Y/dSH-SY5Y and NSC/dNSC
# [10] = dLUHMES, 24 h, threshold […] above control
# [11] = 24 h exposure, [ATP], 0.78 to 100 µM
# [12] = SH-SY5Y and dSH-SY5Y (either cell type), MAP 12.5 µM, DTCM 10 µM, MALG 1.56 µM, MHG 1.56 µM, RSR 10 µM
# [13] = MAP 12.5 µM, DTCM 10 µM, MALG 1.56 µM, MHG 1.56 µM, RSR 10 µM
# [14] = SH-SY5Y and dSH-SY5Y (either cell type), MAP 12.5 µM, MALG 1.56 µM, MHG 1.56 µM, RSR 10 µM
compound,measurement,setting,value
"Nc1ccn([C@@H]2O[C@H](CO)[C@@H](O)[C@@H]2O)c(=O)n1 [ARAC, Cytosine arabinoside]",relative cytotoxic sensitivity of LUHMES versus dLUHMES cells,LUHMES and dLUHMES cells [1],LUHMES cells were more sensitive than dLUHMES cells
same,cytotoxic sensitivity ([ATP] IC50) of LUHMES and/or dLUHMES relative to the other cell lines,LUHMES and dLUHMES cells [1]; [9],more sensitive than the other cell lines
same,increase of Caspase 3/7 activity in dLUHMES,[2]; [10],but not dLUHMES
same,"peak Caspase 3/7 activities, ranking among compounds",[3],highest activities
"O=C1C2CC=CCC2C(=O)N1SC(Cl)(Cl)Cl (centres unmarked) [CAP, Captan]",cytotoxic sensitivity ([ATP] IC50) of LUHMES and/or dLUHMES relative to the other cell lines,LUHMES and dLUHMES cells [1]; [9],more sensitive than the other cell lines
same,relative cytotoxic sensitivity of LUHMES versus dLUHMES cells,LUHMES and dLUHMES cells [1]; [11],dLUHMES cells were markedly more sensitive than LUHMES cells
same,In vitro neural selectivity: neural-derived cell lines 10-fold more sensitive (10-fold lower IC50) than the median of the other 9 cell lines,[4],"SH-SY5Y ([Huang et al., 2008], [Xia et al., 2008])"
same,cytotoxic sensitivity of dSH-SY5Y cells relative to SH-SY5Y cells,[5]; [11],slightly more sensitive
"COc1cc2c(c(OC)c1OC)-c1ccc(OC)c(=O)cc1[C@@H](NC(C)=O)CC2 [CLCH, Colchicine]",cytotoxic sensitivity ([ATP] IC50) of LUHMES and/or dLUHMES relative to the other cell lines,LUHMES and dLUHMES cells [1],more sensitive than the other cell lines
same,In vitro neural selectivity: neural-derived cell lines 10-fold more sensitive (10-fold lower IC50) than the median of the other 9 cell lines,[4],"HEK293, SH-SY5Y, SK-N- SH, N2a ([Huang et al., 2008], [Xia et al., 2008])"
"O=C(O)CCCc1ccc(N(CCCl)CCCl)cc1 [CLM, Chlorambucil]",relative cytotoxic sensitivity of LUHMES versus dLUHMES cells,LUHMES and dLUHMES cells [1],LUHMES cells were more sensitive than dLUHMES cells
same,cytotoxic sensitivity ([ATP] IC50) of LUHMES and/or dLUHMES relative to the other cell lines,LUHMES and dLUHMES cells [1]; [9],more sensitive than the other cell lines
same,In vitro neural selectivity: neural-derived cell lines 10-fold more sensitive (10-fold lower IC50) than the median of the other 9 cell lines,[4],"selective toxicity to SH-SY5Y cells; also recorded: SH-SY5Y, ([Huang et al., 2008], [Xia et al., 2008])"
same,increase of Caspase 3/7 activity in dLUHMES,[2]; [10],but not dLUHMES
same,"peak Caspase 3/7 activities, ranking among compounds",[3],highest activities
"COc1cccc2c1C(=O)c1c(O)c3c(c(O)c1C2=O)C[C@@](O)(C(C)=O)C[C@@H]3O[C@H]1C[C@H](N)[C@H](O)[C@H](C)O1 [DAUN, Daunorubicin]",In vitro neural selectivity: neural-derived cell lines 10-fold more sensitive (10-fold lower IC50) than the median of the other 9 cell lines,[4],"HEK293, SH-SY5Y, SK-N- SH, N2a ([Huang et al., 2008], [Xia et al., 2008])"
same,"peak Caspase 3/7 activities, ranking among compounds",[3],highest activities
"C[C@H]1O[C@@H](O[C@H]2[C@@H](O)C[C@H](O[C@H]3[C@@H](O)C[C@H](O[C@H]4CC[C@@]5(C)[C@H](CC[C@@H]6[C@@H]5C[C@@H](O)[C@]5(C)[C@@H](C7=CC(=O)OC7)CC[C@]65O)C4)O[C@@H]3C)O[C@@H]2C)C[C@H](O)[C@@H]1O [DGX, Digoxin]",cytotoxic sensitivity ([ATP] IC50) of LUHMES and/or dLUHMES relative to the other cell lines,LUHMES and dLUHMES cells [1],more sensitive than the other cell lines
"COc1cccc2c1C(=O)c1c(O)c3c(c(O)c1C2=O)C[C@@](O)(C(=O)CO)C[C@@H]3O[C@H]1C[C@H](N)[C@H](O)[C@H](C)O1 [DOX, Doxorubicin]",In vitro neural selectivity: neural-derived cell lines 10-fold more sensitive (10-fold lower IC50) than the median of the other 9 cell lines,[4],"HEK293, SH-SY5Y, SK-N- SH ([Huang et al., 2008], [Xia et al., 2008])"
same,"peak Caspase 3/7 activities, ranking among compounds",[3],highest activities
"N#CSCSC#N [DTCM, Dithiocyanatomethan]",cytotoxic sensitivity ([ATP] IC50) of LUHMES and/or dLUHMES relative to the other cell lines,LUHMES and dLUHMES cells [1]; [9],more sensitive than the other cell lines
same,relative cytotoxic sensitivity of LUHMES versus dLUHMES cells,LUHMES and dLUHMES cells [1]; [11],dLUHMES cells were markedly more sensitive than LUHMES cells
same,BIRC5 gene expression,[6]; [12],down-regulation
same,BIRC3 gene expression,"[6]; SH-SY5Y, DTCM 10 µM",down-regulation
same,FAS mRNA,"[6]; SHSY5Y, DTCM 10 µM",down-regulated
same,BAG3 expression,[6]; [13],increased expression
same,BIRC3 gene expression,"[6]; dSH-SY5Y, DTCM 10 µM",did not respond detectably
same,FASL mRNA,"[6]; dSH-SY5Y, DTCM 10 µM",unchanged
same,In vitro neural selectivity: neural-derived cell lines 10-fold more sensitive (10-fold lower IC50) than the median of the other 9 cell lines,[4],"SH-SY5Y ([Huang et al., 2008], [Xia et al., 2008])"
same,increase of Caspase 3/7 activity in dLUHMES,[2]; [10],but not dLUHMES
same,cytotoxic sensitivity of dSH-SY5Y cells relative to SH-SY5Y cells,[5]; [11],slightly more sensitive
"O=c1c(-c2ccc(O)cc2)coc2cc(O)cc(O)c12 [GEN, Genistein]",increase of Caspase 3/7 activity in dLUHMES,[2]; [10],but not dLUHMES
"CN(C)c1ccc(C(=C2C=CC(=[N+](C)C)C=C2)c2ccccc2)cc1.CN(C)c1ccc(C(=C2C=CC(=[N+](C)C)C=C2)c2ccccc2)cc1.O=C(O)C(=O)O.O=C([O-])C(=O)O.O=C([O-])C(=O)O [MALG, Malachite green oxalate]",BIRC5 gene expression,[6]; [12],down-regulation
same,BIRC3 gene expression,[6]; [14],down-regulation
same,BAG3 expression,[6]; [13],increased expression
same,"peak Caspase 3/7 activities, ranking among compounds",[3],highest activities
same,"cytotoxic sensitivity of LUHMES, dLUHMES, NSC and dNSC compared with each other",[7],comparable sensitivity
"[CH3][Hg+] [MHG, Methyl mercury (II)]",BIRC5 gene expression,[6]; [12],down-regulation
same,BIRC3 gene expression,[6]; [14],down-regulation
same,BAG3 expression,[6]; [13],increased expression
"Cc1ccc2c(c1[N+](=O)[O-])C(=O)c1ccccc1C2=O [MNA, 2-Methyl-1-nitroanthraquinone]",cytotoxic sensitivity ([ATP] IC50) of LUHMES and/or dLUHMES relative to the other cell lines,LUHMES and dLUHMES cells [1],more sensitive than the other cell lines
same,In vitro neural selectivity: neural-derived cell lines 10-fold more sensitive (10-fold lower IC50) than the median of the other 9 cell lines,"[4]; qHTS cytotoxicity, ref Huang et al., 2008, Xia et al., 2008","HEK293 ([Huang et al., 2008], [Xia et al., 2008])"
same,increase of Caspase 3/7 activity in dLUHMES,[2]; [10],but not dLUHMES
"Cc1c(O)cccc1C(=O)N[C@@H](CSc1ccccc1)[C@H](O)CN1C[C@H]2CCCC[C@H]2C[C@H]1C(=O)NC(C)(C)C [NLF, Nelfinavir]",cytotoxic sensitivity ([ATP] IC50) of LUHMES and/or dLUHMES relative to the other cell lines,LUHMES and dLUHMES cells [1],more sensitive than the other cell lines
same,In vitro neural selectivity: neural-derived cell lines 10-fold more sensitive (10-fold lower IC50) than the median of the other 9 cell lines,[4],"SH-SY5Y ([Huang et al., 2008], [Xia et al., 2008])"
"CCCCCCCCn1sccc1=O [OTZ, 2-octyl-4-isothiazolin-3-one]",cytotoxic sensitivity ([ATP] IC50) of LUHMES and/or dLUHMES relative to the other cell lines,LUHMES and dLUHMES cells [1],more sensitive than the other cell lines
same,In vitro neural selectivity: neural-derived cell lines 10-fold more sensitive (10-fold lower IC50) than the median of the other 9 cell lines,[4],"SH-SY5Y ([Huang et al., 2008], [Xia et al., 2008])"
same,relative cytotoxic sensitivity of NSC versus dNSC,NSC and dNSC cells,NSC more sensitive than dNSC
"C=C(C)[C@H]1Cc2c(ccc3c2O[C@@H]2COc4cc(OC)c(OC)cc4[C@@H]2C3=O)O1 [ROTE, Rotenone]",relative cytotoxic sensitivity of LUHMES versus dLUHMES cells,LUHMES and dLUHMES cells [1],LUHMES cells were more sensitive than dLUHMES cells
same,cytotoxic sensitivity ([ATP] IC50) of LUHMES and/or dLUHMES relative to the other cell lines,LUHMES and dLUHMES cells [1]; [9],more sensitive than the other cell lines
same,cytotoxic sensitivity of dSH-SY5Y cells relative to SH-SY5Y cells,[5],more sensitive
"c1cc(OCC2CO2)cc(OCC2CO2)c1 (centres unmarked) [RSR, Resorcinol diglycidyl ether]",cytotoxic sensitivity ([ATP] IC50) of LUHMES and/or dLUHMES relative to the other cell lines,LUHMES and dLUHMES cells [1]; [9],more sensitive than the other cell lines
same,BIRC5 gene expression,[6]; [12],did not respond detectably
same,BIRC3 gene expression,[6]; [14],did not respond detectably
same,BAG3 expression,[6]; [13],weakly
same,cytotoxicity seen in samples treated for qPCR,LUHMES and dLUHMES cells [8],excessive cytotoxicity
same,In vitro neural selectivity: neural-derived cell lines 10-fold more sensitive (10-fold lower IC50) than the median of the other 9 cell lines,[4],"SH-SY5Y ([Huang et al., 2008], [Xia et al., 2008])"
same,"peak Caspase 3/7 activities, ranking among compounds",[3],highest activities
same,relative cytotoxic sensitivity of NSC versus dNSC,NSC and dNSC cells,the converse was true
"[CH3][Sn]([CH3])([CH3])[Cl] [TMT, Trimethyltin chloride]",cytotoxic sensitivity ([ATP] IC50) of LUHMES and/or dLUHMES relative to the other cell lines,LUHMES and dLUHMES cells [1]; [9],more sensitive than the other cell lines
same,relative cytotoxic sensitivity of LUHMES versus dLUHMES cells,LUHMES and dLUHMES cells [1]; [11],dLUHMES cells were markedly more sensitive than LUHMES cells
"CC[C@]1(O)C[C@H]2CN(CCc3c([nH]c4ccccc34)[C@@](C(=O)OC)(c3cc4c(cc3OC)N(C=O)[C@H]3[C@@](O)(C(=O)OC)[C@H](OC(C)=O)[C@]5(CC)C=CCN6CC[C@]43[C@@H]65)C2)C1 [VIN, Vincristine sulfate]",cytotoxic sensitivity ([ATP] IC50) of LUHMES and/or dLUHMES relative to the other cell lines,LUHMES and dLUHMES cells [1],more sensitive than the other cell lines
Aflatoxin B1,cytotoxic sensitivity ([ATP] IC50) of LUHMES and/or dLUHMES relative to the other cell lines,LUHMES and dLUHMES cells [1],more sensitive than the other cell lines
same,relative cytotoxic sensitivity of LUHMES versus dLUHMES cells,LUHMES and dLUHMES cells [1],LUHMES cells were more sensitive than dLUHMES cells
same,increase of Caspase 3/7 activity in dLUHMES,[2],but not dLUHMES
Sodium dichromate [CR2],In vitro neural selectivity: neural-derived cell lines 10-fold more sensitive (10-fold lower IC50) than the median of the other 9 cell lines,[4],"SH-SY5Y ([Huang et al., 2008], [Xia et al., 2008])"
Tunicamycin [TUNC],cytotoxic sensitivity ([ATP] IC50) of LUHMES and/or dLUHMES relative to the other cell lines,LUHMES and dLUHMES cells [1]; [9],more sensitive than the other cell lines
Ziram,In vitro neural selectivity: neural-derived cell lines 10-fold more sensitive (10-fold lower IC50) than the median of the other 9 cell lines,[4],"SH-SY5Y ([Huang et al., 2008], [Xia et al., 2008])"
